Here are results for 31 molecules from patent publication US9890149B2 (NuBridge BioSciences, priority 2015, dated 2018).

SMILES strings stand for the structures.

In the assay the target is T1, ΔF508 mutant CFTR (Homo sapiens, UniProt P13569, DEL508-508).
T1 construct: expressed in transfected cells; host or cells: Fischer rat thyroid (FRT) cells
T1 sequence (P13569 with tags, fused parts or gaps DEL508-508): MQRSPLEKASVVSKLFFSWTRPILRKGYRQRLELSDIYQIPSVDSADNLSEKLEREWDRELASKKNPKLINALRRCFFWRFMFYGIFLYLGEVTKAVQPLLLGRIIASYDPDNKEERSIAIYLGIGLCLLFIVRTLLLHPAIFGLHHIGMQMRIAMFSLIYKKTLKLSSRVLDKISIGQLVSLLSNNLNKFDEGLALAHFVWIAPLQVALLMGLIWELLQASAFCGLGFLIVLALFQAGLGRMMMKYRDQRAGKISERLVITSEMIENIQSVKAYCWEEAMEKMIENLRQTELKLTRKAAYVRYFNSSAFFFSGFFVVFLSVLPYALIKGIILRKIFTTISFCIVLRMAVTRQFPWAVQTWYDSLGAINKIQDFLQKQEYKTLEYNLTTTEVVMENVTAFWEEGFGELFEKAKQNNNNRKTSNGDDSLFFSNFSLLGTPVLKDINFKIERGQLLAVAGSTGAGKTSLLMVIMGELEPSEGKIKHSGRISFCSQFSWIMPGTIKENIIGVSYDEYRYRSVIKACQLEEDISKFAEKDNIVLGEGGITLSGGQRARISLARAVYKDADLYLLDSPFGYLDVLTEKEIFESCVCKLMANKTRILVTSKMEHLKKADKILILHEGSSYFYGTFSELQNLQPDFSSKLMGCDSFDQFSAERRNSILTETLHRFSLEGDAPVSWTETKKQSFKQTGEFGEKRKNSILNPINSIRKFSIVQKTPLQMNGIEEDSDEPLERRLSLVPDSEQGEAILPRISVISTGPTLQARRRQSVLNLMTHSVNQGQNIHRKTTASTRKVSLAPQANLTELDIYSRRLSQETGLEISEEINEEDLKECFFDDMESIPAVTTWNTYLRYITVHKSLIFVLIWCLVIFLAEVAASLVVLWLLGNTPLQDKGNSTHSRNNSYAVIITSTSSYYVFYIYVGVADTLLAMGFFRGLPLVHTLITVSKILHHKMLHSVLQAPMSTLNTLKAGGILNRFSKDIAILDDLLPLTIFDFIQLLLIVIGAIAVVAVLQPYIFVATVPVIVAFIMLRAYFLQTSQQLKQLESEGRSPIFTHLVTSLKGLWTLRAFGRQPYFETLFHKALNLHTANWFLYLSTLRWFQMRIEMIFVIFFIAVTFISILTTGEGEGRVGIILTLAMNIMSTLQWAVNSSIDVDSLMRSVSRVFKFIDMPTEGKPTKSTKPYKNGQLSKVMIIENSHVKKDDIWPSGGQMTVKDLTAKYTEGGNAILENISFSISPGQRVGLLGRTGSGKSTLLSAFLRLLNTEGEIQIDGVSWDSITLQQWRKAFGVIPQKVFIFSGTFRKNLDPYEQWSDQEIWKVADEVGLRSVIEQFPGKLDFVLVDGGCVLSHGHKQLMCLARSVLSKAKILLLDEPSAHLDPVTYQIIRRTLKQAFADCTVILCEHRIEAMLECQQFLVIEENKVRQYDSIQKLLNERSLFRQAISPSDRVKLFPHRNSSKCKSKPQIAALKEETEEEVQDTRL
The experiment in a line: Fluorescence Assay (halide-sensitive YFP, iodide influx) for ΔF508 mutant CFTR activity. The class given is cell-based. The conditions noted are these: FRT cells expressing ΔF508-CFTR and YFP-H148Q/I152L, incubated 27° C. 20-24 h; forskolin (20 μM) and test compounds (20 μM) for 20 min; rate of fluorescence quenching by I−, normalized to forskolin alone. The source says:
The ΔF508 mutant CFTR activities of the CFTR modulators are detected using the Fluorescence Assay developed by Pedemonte (Pedemonte N., et al., Antihypertensive 1,4-dihydropyridines as correctors of the cystic fibrosis transmembrane conductance regulator channel gating defect caused by cystic fibrosis mutations, Mol. Pharmacol., 2005, 68, 1736-1746).
Fischer rat thyroid (FRT) cells, stably transfected with ΔF508 were retransfected with the YFP-H148Q/I152L fluorescent protein. The cells were plated (100,000 cells/well) on black 96-well microplates with clear plastic bottom (Corning Life Sciences, Acton, Mass.).
The 96-well microplates containing FRT cells expressing F508-CFTR and the halide-sensitive YFP were incubated at 27° C. for 20 to 24 h to allow rescue of the mutant protein to the plasma membrane. After incubation, cells were washed with PBS (containing 137 mM NaCl, 2.7 mM KCl, 8.1 mM Na2HPO4, 1.5 mM KH2PO4, 1 mM CaCl2, and 0.5 mM MgCl2) and stimulated for 20 min with forskolin (20 μM) and test compounds (20 μM) in a final volume of […] Microplates were then transferred to a microplate reader for CFTR activity determination.
In the case of `Cl.Nc1cc(F)c(-c2c(F)cccc2F)nc1C(=O)Nc1cnsc1OC1CCNC1` (stereo not shown) [Example 24, 3-amino-6-(2,6-difluorophenyl)-5-fluoro-N-(5-(pyrrolidin-3-yloxy)isothiazol-4-yl)picolinamide hydrochloride], the “CFTR Activity” value is 1.9.
`Cl.O=C(Nc1cnsc1OC1CCCNCC1)c1ccc(F)c(-c2c(F)cccc2F)n1` (stereo not shown) [Example 6, N-(5-(azepan-4-yloxy)isothiazol-4-yl)-6-(2,6-difluorophenyl)-5-fluoropicolinamide hydrochloride]: the “CFTR Activity” value was determined as 1.4.
Turning to `Cl.O=C(Nc1cnsc1OCC1CCCNC1)c1ccc(F)c(-c2c(F)cccc2F)n1` (stereo not shown) [Example 7, 6-(2,6-difluorophenyl)-5-fluoro-N-(5-(piperidin-3-ylmethoxy)isothiazol-4-yl)picolinamide hydrochloride], the “CFTR Activity” value was found to be 0.9.
Take `Cl.Nc1cc(F)c(-c2c(F)cccc2F)nc1C(=O)Nc1cnsc1OC1CNC1` [Example 31, 3-amino-N-(5-(azetidin-3-yloxy)isothiazol-4-yl)-6-(2,6-difluorophenyl)-5-fluoropicolinamide hydrochloride]: the “CFTR Activity” value was 0.1.
Turning to `Cl.O=C(Nc1cnsc1OC1CNC1)c1ccc(F)c(-c2c(F)cccc2F)n1` [Example 9, N-(5-(azetidin-3-yloxy)isothiazol-4-yl)-6-(2,6-difluorophenyl)-5-fluoropicolinamide hydrochloride], the “CFTR Activity” value is recorded as 0.1.
As to `Cl.Nc1cc(C(F)(F)F)c(-c2c(F)cccc2F)nc1C(=O)Nc1cnsc1OC1CCNCC1` [Example 51, 3-amino-6-(2,6-difluorophenyl)-N-(5-(piperidin-4-yloxy)isothiazol-4-yl)-5-(trifluoromethyl)picolinamide hydrochloride], the “CFTR Activity” value came to 0.7.
Next, `Cl.N[C@H]1CC[C@H](Oc2sncc2NC(=O)c2ccc(F)c(-c3c(F)cccc3F)n2)CC1` [Example 10, N-(5-(((1r,4r)-4-aminocyclohexyl)oxy)isothiazol-4-yl)-6-(2,6-difluorophenyl)-5-fluoropicolinamide hydrochloride]: 1; `Cl.Nc1cc(F)c(-c2c(F)cccc2F)nc1C(=O)Nc1cnsc1OCC1CCCNC1` (stereo not shown) [Example 35, 3-amino-6-(2,6-difluorophenyl)-5-fluoro-N-(5-(piperidin-3-ylmethoxy)isothiazol-4-yl)picolinamide hydrochloride]: 1.6; `Cl.NCC(CO)COc1sncc1NC(=O)c1ccc(F)c(-c2c(F)cccc2F)n1` (stereo not shown) [Example 56, N-(5-(3-amino-2-(hydroxymethyl)propoxy)isothiazol-4-yl)-6-(2,6-difluorophenyl)-5-fluoropicolinamide hydrochloride]: 0.5.
Next, `Cl.O=C(Nc1cnsc1OC1CCNC1)c1ccc(F)c(-c2c(F)cccc2F)n1` (stereo not shown) [Example 4, 6-(2,6-difluorophenyl)-5-fluoro-N-(5-(pyrrolidin-3-yloxy)isothiazol-4-yl)picolinamide hydrochloride]: 0.8; `Cl.NCC(CO)COc1sncc1NC(=O)c1nc(-c2c(F)cccc2F)c(F)cc1N` (stereo not shown) [Example 57, 3-amino-N-(5-(3-amino-2-(hydroxymethyl)propoxy)isothiazol-4-yl)-6-(2,6-difluorophenyl)-5-fluoropicolinamide hydrochloride]: 1.8.
Turning to `O=C(Nc1cnsc1OCCCCO)c1ccc(F)c(-c2c(F)cccc2F)n1` [Example 19, 6-(2,6-difluorophenyl)-5-fluoro-N-(5-(4-hydroxybutoxy)isothiazol-4-yl)picolinamide], the “CFTR Activity” value is given as 0.1.
With `CC(O)CCOc1sncc1NC(=O)c1ccc(F)c(-c2c(F)cccc2F)n1` (stereo not shown) [Example 18, 6-(2,6-difluorophenyl)-5-fluoro-N-(5-(3-hydroxybutoxy)isothiazol-4-yl)picolinamide], the “CFTR Activity” value is 0.12.
`Cl.O=C(Nc1cnsc1OC1CCCNCC1)c1nc(-c2c(F)cccc2F)ccc1F` (stereo not shown) [Example 40, N-(5-(azepan-4-yloxy)isothiazol-4-yl)-6-(2,6-difluorophenyl)-3-fluoropicolinamide hydrochloride]: the “CFTR Activity” value was 1.4.
Next, `Cl.NCCCCOc1sncc1NC(=O)c1ccc(F)c(-c2c(F)cccc2F)n1` [Example 15, N-(5-(4-aminobutoxy)isothiazol-4-yl)-6-(2,6-difluorophenyl)-5-fluoropicolinamide hydrochloride]: 0.7.
Turning to `Cl.O=C(Nc1cnsc1OC1CCNCC1)c1ccc(F)c(-c2ccncc2)n1` [Example 39, 3-fluoro-N-(5-(piperidin-4-yloxy)isothiazol-4-yl)-[2,4′-bipyridine]-6-carboxamide hydrochloride], the “CFTR Activity” value is on record as 0.3.
For the molecule `Cl.O=C(Nc1cnsc1OC1CCNCC1)c1ccc(C(F)(F)F)c(-c2c(F)cccc2F)n1` [Example 45, 6-(2,6-difluorophenyl)-N-(5-(piperidin-4-yloxy)isothiazol-4-yl)-5-(trifluoromethyl)picolinamide hydrochloride], the “CFTR Activity” value came to 1.7.
Next, `Cl.Nc1cc(C(F)(F)F)c(-c2ccccc2)nc1C(=O)Nc1cnsc1OC1CCNC1` (stereo not shown) [Example 53, 3-amino-6-phenyl-N-(5-(pyrrolidin-3-yloxy)isothiazol-4-yl)-5-(trifluoromethyl)picolinamide hydrochloride]: 0.4.
Consider `O=C(Nc1cnsc1OCC1CCOCC1)c1ccc(C(F)(F)F)c(-c2c(F)cccc2F)n1` [Example 47], for which the “CFTR Activity” value is listed as 0.6.
Next, `Cl.NCCCOc1sncc1NC(=O)c1ccc(F)c(-c2c(F)cccc2F)n1` [Example 12, N-(5-(3-aminopropoxy)isothiazol-4-yl)-6-(2,6-difluorophenyl)-5-fluoropicolinamide hydrochloride]: 0.7; `Cl.O=C(Nc1cnsc1OC1CCNCC1)c1ccc(F)c(-c2c(F)cccc2F)n1` [Example 3, 6-(2,6-difluorophenyl)-5-fluoro-N-(5-(piperidin-4-yloxy)isothiazol-4-yl)picolinamide hydrochloride]: 1.3.
`Cl.O=C(Nc1cnsc1OC1CCCNC1)c1ccc(F)c(-c2c(F)cccc2F)n1` (stereo not shown) [Example 5, 6-(2,6-difluorophenyl)-5-fluoro-N-(5-(piperidin-3-yloxy)isothiazol-4-yl)picolinamide hydrochloride]: the “CFTR Activity” value is given as 0.5.
Then `Cl.NCC(CO)COc1sncc1NC(=O)c1ccc(C(F)(F)F)c(-c2c(F)cccc2F)n1` (stereo not shown) [Example 58, N-(5-(3-amino-2-(hydroxymethyl)propoxy)isothiazol-4-yl)-6-(2,6-difluorophenyl)-5-(trifluoromethyl)picolinamide hydrochloride], with 2; and `CNCCCOc1sncc1NC(=O)c1ccc(F)c(-c2c(F)cccc2F)n1.Cl` [Example 13, 6-(2,6-difluorophenyl)-5-fluoro-N-(5-(3-(methylamino)propoxy)isothiazol-4-yl)picolinamide hydrochloride], with 0.5.
For the molecule `Cl.Nc1cc(C(F)(F)F)c(-c2c(F)cccc2F)nc1C(=O)Nc1cnsc1OC1CCCC(N)C1` (stereo not shown) [Example 61, 3-amino-N-(5-((3-aminocyclohexyl)oxy)isothiazol-4-yl)-6-(2,6-difluorophenyl)-5-(trifluoromethyl)picolinamide hydrochloride], the “CFTR Activity” value was 0.4.
Regarding `Cl.NCC(CCl)COc1sncc1NC(=O)c1ccc(F)c(-c2c(F)cccc2F)n1` (stereo not shown) [Example 30, N-(5-(3-amino-2-(chloromethyl)propoxy)isothiazol-4-yl)-6-(2,6-difluorophenyl)-5-fluoropicolinamide hydrochloride], the “CFTR Activity” value is given as 1.4.
Next, `Cl.NC1CCCC(Oc2sncc2NC(=O)c2ccc(F)c(-c3c(F)cccc3F)n2)C1` (stereo not shown) [Example 11, N-(5-((3-aminocyclohexyl)oxy)isothiazol-4-yl)-6-(2,6-difluorophenyl)-5-fluoropicolinamide hydrochloride]: 1.1.
Next, `Cl.O=C(Nc1cnsc1OCC1CNC1)c1ccc(C(F)(F)F)c(-c2c(F)cccc2F)n1` [Example 44, N-(5-(azetidin-3-ylmethoxy)isothiazol-4-yl)-6-(2,6-difluorophenyl)-5-(trifluoromethyl)picolinamide hydrochloride]: 0.3; `Cl.NCC(CCl)COc1sncc1NC(=O)c1ccc(C(F)(F)F)c(-c2c(F)cccc2F)n1` (stereo not shown) [Example 54, N-(5-(3-amino-2-(chloromethyl)propoxy)isothiazol-4-yl)-6-(2,6-difluorophenyl)-5-(trifluoromethyl)picolinamide hydrochloride]: 0.5.
Take `O=C(Nc1cnsc1OCC1CCOCC1)c1ccc(F)c(-c2c(F)cccc2F)n1` [Example 22, 6-(2,6-difluorophenyl)-5-fluoro-N-(5-((tetrahydro-2H-pyran-4-yl)methoxy)isothiazol-4-yl)picolinamide]: the “CFTR Activity” value came to 0.3.
Take `Cl.Nc1cc(F)c(-c2c(F)cccc2F)nc1C(=O)Nc1cnsc1O[C@H]1CC[C@H](N)CC1` [Example 27, 3-amino-N-(5-(((1r,4r)-4-aminocyclohexyl)oxy)isothiazol-4-yl)-6-(2,6-difluorophenyl)-5-fluoropicolinamide hydrochloride]: the “CFTR Activity” value came out at 2.8.
